Laboratory results as given in patent US10131647B2, “Chromene derivatives substituted by alkoxide as inhibitors of the TCR-Nck interaction” (ARTAX BIOPHARMA INC., priority 2013, dated 2018).
Where two headings read alike, the source gives them in different places.

Experiments:
[1] = Pharmacokinetics after intravenous bolus and oral gavage; type: in vivo, Swiss albino mice; details: for F: 50 mg/kg vs IV 5 mg/kg
[2] = tested on: chronic EAE induced by MOG35-55 peptide; test: In vivo test on model of chronic EAE (Experimental Autoimmune Encephalomyelitis); set-up: species or system C57BL/6 female mice
[3] = IV, 5 mg/kg, Swiss albino mice, mean
[4] = PO, 50 mg/kg, Swiss albino mice, mean
[5] = oral, first 10 days from immunization, versus placebo group
[6] = mouse, in vivo, IV (5 mg/kg), Swiss albino mice, mean
[7] = mouse, in vivo, PO (50 mg/kg), Swiss albino mice, mean

## COc1ccc2c(c1)C(c1ccc(F)cc1)=C(CN1CCCC1)CO2 [ECRA-24]
[1]; [3]
  AUCint: 840.27 ng·h/mL
  AUClast: 838.43 ng·h/mL
  CL: 99.17 mL/min/kg
  Cmax: 1168.89 ng/mL
  T1/2: 3.36 h
  Vss: 11.37 L/kg
[1]; PO, Swiss albino mice
  F: 4
[1]; [4]
  AUCint: 299.69 ng·h/mL
  AUClast: 297.03 ng·h/mL
  Cmax: 171.56 ng/mL
  T1/2: 4.93 h
  Tmax: 0.25 h

## Fc1ccc(C2=C(CN3CCCC3)COc3ccc(OCC4CC4)cc32)cc1 [AX-104, 1-((6-(cyclopropylmethoxy)-4-(4-fluorophenyl)-2H-chromen-3-yl)methyl)pyrrolidine]
[2]; [5]
  clinical score of the disease (scale 0-6), FIG. 2: reduced score when compared to the placebo group
  weight of the animals (weight loss), FIG. 3: weight loss significantly reduced
[2]; overall results of the EAE study
  impact of the symptoms associated to the model: significantly reducing the impact of the symptoms
[1]; PO, Swiss albino mice
  F: 24
[1]; Swiss albino, mouse, in vivo, 50 mg/kg, oral gavage vs intravenous bolus, text says rats, n=3, read-out: total bioavailability after oral administration
  bioavailability: 24%
[1]; [6]
  AUC(0-inf): 750 ng·h/mL
  AUC(0-t): 724 ng·h/mL
  clearance: 111 mL/min/kg
  half-life: 8.45 h
[1]; mouse, in vivo, IV (5 mg/kg), Swiss albino mice, mean, read-out: Cmax
  Cmax: 1280 ng/mL
[1]; mouse, in vivo, IV (5 mg/kg), Swiss albino mice, mean, read-out: Vss
  Vd: 20.6 L/kg
[1]; [7]
  AUC(0-inf): 1790 ng·h/mL
  AUC(0-t): 1760 ng·h/mL
[1]; mouse, in vivo, PO (50 mg/kg), Swiss albino mice, mean, read-out: Cmax
  Cmax: 930 ng/mL
[1]; mouse, in vivo, PO (50 mg/kg), Swiss albino mice, mean, read-out: Tmax
  Tmax: 0.25 h
